According to PubChem BioAssay AID1963450 (Molecular Pharmacology Branch, DTP, NCI, 2024):

Test system: 556581-035-R-J1-PDC complex spheroid growth
Assay: Anticancer human tumor 556581-035-R-J1-PDC patient-derived ovarian carcinoma cell line growth inhibition [Asc]
Settings: for IC50: curve of first compound; for viability, T/C: stronger effect = lower value; active means viability on the fitted dose curve at most 10% of control; inactive means the rest
Experimental: Multicellular complex tumor spheroid response to apoptosis pathway targeting inhibitors Alrizomadlin, Pelcitoclax, and Dasminapant in combination with a variety of drugs and investigational agents in selected tumor cell lines
The MDM2 inhibitor alrizomadlin, the Bcl-2/Bcl-xL inhibitor pelcitoclax, and the IAPs inhibitor dasminapant were evaluated both individually and in combination with standard of care and investigational anticancer small molecules within a complex spheroid model of solid tumors. . Complex spheroids include a stromal component modeled by human endothelial cells (HUVEC) and fibroblasts modeled by human mesenchymal stem cells (MSCs). The concentration ranges selected for each drug and investigational agent were based upon clinically achievable concentrations if the clinical Cmax of the agent was known.
Compounds. The drugs and investigational agents: alrizomadlin (APG-115; NSC831270), pelcitoclax (APG-1252; NSC835773), dasminapant (APG-1387;NSC834197), TAK-243 (NSC785004), copanlisib (NSC809693), olaparib (NSC753686), talazoparib (NSC767125), cobimetinib (NSC 768068), eltanexor (KPT-8602, NSC 794443), abemaciclib (NSC 768073), sotorasib (NSC818433), adagrasib (NSC 831453), MRTX-1133 (NSC 836407), Iadademestat (ORY1001, NSC 806812), and RMC-4630 (NSC839698), were obtained from the NCI Developmental Therapeutics Program Chemical Repository. The FDA-approved anticancer drug set is available from the Developmental Therapeutics Program at https://dtp.cancer.gov/organization/dscb/obtaining/available plates.htm. […] The stock solutions were prepared in dimethyl sulfoxide (DMSO, Sigma-Aldrich, St. Louis, MO, cat. D2650) at 800-fold the tested concentration and stored at -70 degrees C prior to their use. All drugs and investigational agents were tested over a range starting from a high concentration at or near the clinical Cmax and decreasing in half-log increments. If the clinical Cmax for an agent had not been determined, the highest concentration tested was 10 microM.
The patient-derived cancer (PDC) cell lines include five colon adenocarcinomas: 186277-243-T-J2-PDC, 616215-338-R-J1-PDC, 439559-082-T-J2-PDC, 463943-066-T-J2-PDC, and 519858-162-T-J1-PDC; three pancreatic carcinomas: 323965-272-R-J2-PDC, 521955-158-R6-J3-PDC, and 521955-158-R2-J5-PDC; two uterine sarcomas: 327498-152-R-J2-PDC and 993429-296-R-J1-PDC; two rhabdomyosarcomas: 755483-174-R-J1-PDC and 772245-204-R-J1-PDC; two soft tissue sarcomas: 126254-015-R-J1-PDC and 494315-158-R-J1-PDC; two malignant fibrous histiocytomas: 317291-083-R-J1-PDC and 596521-263-R-J1-PDC; two breast carcinomas: 171881-019-R-J1-PDC and 885512-296-R-J2-PDC; and one ovarian carcinoma: 6556581-035-R-J-PDC were obtained from the NCI PDMR, (https://pdmr.cancer.gov). The established cell lines HSSY-2 synovial sarcoma (RRID:CVCL 8719), SYO-1 synovial sarcoma (RRID:CVCL_7146), MPNST malignant peripheral neural sheath tumor were obtained from the Sloan Kettering Institute. The following established cell lines were purchased from the American Type Culture Collection (ATCC, Manassas, VA), Sor the received from the NCI repository:, PANC-1 pancreatic carcinoma (CRL-1469, RRID:CVCL_0480), OVCAR-5 ovarian carcinoma (RRID:CVCL_1628), OVCAR-8 ovarian carcinoma (RRID:CVCL_1629), , MCF-7 breast carcinoma (CRL-12584, RRID:CVCL_0031), MDA-MB-231 breast carcinoma (CRL-12532, RRID:CVCL_0062), NCI-H1876 small cell lung carcinoma (CRL-5902, RRID:CVCL_1503), NCI-H510A small cell lung carcinoma (HTB-184, RRID:CVCL_1565), NCI-H1417 (CRL-5869, RRID:CVCL_1469), and NCI-H196 small cell lung carcinoma (CRL-5823, RRID:CVCL_1509). Dr. Peter Houghton (Greehey Children's Cancer Research Institute, University of Texas Health Science Center, San Antonio, TX) provided Rh-18 rhabdomyosarcoma (RRID:CVCL_1659). Pooled donor human umbilical vein endothelial cells (HUVEC, Lonza, cat. CC-2519) and human mesenchymal stem cells (hMSC, Lonza, cat. PT-2501) were purchased from Lonza (Walkersville, MD).
Cell Culture. […]

[1] = second compound 0.03 µM, first compound 0.00316 µM
[2] = second compound 0.03 µM, first compound 0.01 µM
[3] = second compound 0.03 µM, first compound 0.0316 µM
[4] = second compound 0.03 µM, first compound 0.1 µM
[5] = second compound 0.0949 µM, first compound 0.00316 µM
[6] = second compound 0.0949 µM, first compound 0.01 µM
[7] = second compound 0.0949 µM, first compound 0.0316 µM
[8] = second compound 0.0949 µM, first compound 0.1 µM
[9] = second compound 0.3 µM, first compound 0.00316 µM
[10] = second compound 0.3 µM, first compound 0.01 µM
[11] = second compound 0.3 µM, first compound 0.0316 µM
[12] = second compound 0.3 µM, first compound 0.1 µM
[13] = second compound 0.949 µM, first compound 0.00316 µM
[14] = second compound 0.949 µM, first compound 0.01 µM
[15] = second compound 0.949 µM, first compound 0.0316 µM
[16] = second compound 0.949 µM, first compound 0.1 µM
[17] = second compound 3 µM, first compound 0.00316 µM
[18] = second compound 3 µM, first compound 0.01 µM
[19] = second compound 3 µM, first compound 0.0316 µM
[20] = second compound 3 µM, first compound 0.1 µM
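Further: spheroids exposed to agents for 7 days before viability read.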

CCN1CCN(Cc2ccc(Nc3ncc(F)c(-c4cc(F)c5nc(C)n(C(C)C)c5c4)n3)nc2)CC1 + CCN1C(C(=O)NC23CCC(C(=O)O)(CC2)CC3)C(c2cccc(Cl)c2F)C2(C(=O)Nc3cc(Cl)ccc32)C12CCCCC2
> 1000 nM: IC50 (second compound 0.03 µM) | IC50 (second compound 0.0949 µM) | IC50 (second compound 0.3 µM) | IC50 (second compound 0.949 µM) | IC50 (second compound 3 µM)
inactive: viability, T/C [1] 91.6% | viability, T/C [2] 84.4% | viability, T/C [3] 94% | viability, T/C [4] 81.8% | viability, T/C (second compound 0.03 µM, first compound 0.316 µM) 102% | viability, T/C (second compound 0.03 µM, first compound 1 µM) 88% | viability, T/C [5] 107% | viability, T/C [6] 98% | viability, T/C [7] 95.2% | viability, T/C [8] 106% | viability, T/C (second compound 0.0949 µM, first compound 0.316 µM) 98.2% | viability, T/C (second compound 0.0949 µM, first compound 1 µM) 87.2% | viability, T/C [9] 102% | viability, T/C [10] 82.5% | viability, T/C [11] 96.8% | viability, T/C [12] 99.7% | viability, T/C (second compound 0.3 µM, first compound 0.316 µM) 92.3% | viability, T/C (second compound 0.3 µM, first compound 1 µM) 88.4% | viability, T/C [13] 84.9% | viability, T/C [14] 88.5% | viability, T/C [15] 92.9% | viability, T/C [16] 92.9% | viability, T/C (second compound 0.949 µM, first compound 0.316 µM) 81.1% | viability, T/C (second compound 0.949 µM, first compound 1 µM) 91.6% | viability, T/C [17] 81.7% | viability, T/C [18] 83.3% | viability, T/C [19] 82.6% | viability, T/C [20] 83.5% | viability, T/C (second compound 3 µM, first compound 0.316 µM) 87.2% | viability, T/C (second compound 3 µM, first compound 1 µM) 86.2%

NC(=O)C(=Cn1cnc(-c2cc(C(F)(F)F)cc(C(F)(F)F)c2)n1)c1cncnc1 + CCN1C(C(=O)NC23CCC(C(=O)O)(CC2)CC3)C(c2cccc(Cl)c2F)C2(C(=O)Nc3cc(Cl)ccc32)C12CCCCC2
> 300 nM: IC50 (second compound 0.03 µM) | IC50 (second compound 0.0949 µM) | IC50 (second compound 0.3 µM) | IC50 (second compound 0.949 µM) | IC50 (second compound 3 µM)
inactive: viability, T/C (second compound 0.03 µM, first compound 0.000949 µM) 81% | viability, T/C (second compound 0.03 µM, first compound 0.003 µM) 96.2% | viability, T/C (second compound 0.03 µM, first compound 0.00949 µM) 87.3% | viability, T/C (second compound 0.03 µM, first compound 0.03 µM) 83.1% | viability, T/C (second compound 0.03 µM, first compound 0.0949 µM) 86.6% | viability, T/C (second compound 0.03 µM, first compound 0.3 µM) 86.6% | viability, T/C (second compound 0.0949 µM, first compound 0.000949 µM) 97.6% | viability, T/C (second compound 0.0949 µM, first compound 0.003 µM) 99.7% | viability, T/C (second compound 0.0949 µM, first compound 0.00949 µM) 92.9% | viability, T/C (second compound 0.0949 µM, first compound 0.03 µM) 86.7% | viability, T/C (second compound 0.0949 µM, first compound 0.0949 µM) 90.8% | viability, T/C (second compound 0.0949 µM, first compound 0.3 µM) 101% | viability, T/C (second compound 0.3 µM, first compound 0.000949 µM) 103% | viability, T/C (second compound 0.3 µM, first compound 0.003 µM) 91.6% | viability, T/C (second compound 0.3 µM, first compound 0.00949 µM) 94.9% | viability, T/C (second compound 0.3 µM, first compound 0.03 µM) 87.3% | viability, T/C (second compound 0.3 µM, first compound 0.0949 µM) 86.7% | viability, T/C (second compound 0.3 µM, first compound 0.3 µM) 97.1% | viability, T/C (second compound 0.949 µM, first compound 0.000949 µM) 88.4% | viability, T/C (second compound 0.949 µM, first compound 0.003 µM) 108% | viability, T/C (second compound 0.949 µM, first compound 0.00949 µM) 92.5% | viability, T/C (second compound 0.949 µM, first compound 0.03 µM) 101% | viability, T/C (second compound 0.949 µM, first compound 0.0949 µM) 90% | viability, T/C (second compound 0.949 µM, first compound 0.3 µM) 91.6% | viability, T/C (second compound 3 µM, first compound 0.000949 µM) 83.5% | viability, T/C (second compound 3 µM, first compound 0.003 µM) 87.9% | viability, T/C (second compound 3 µM, first compound 0.00949 µM) 81.7% | viability, T/C (second compound 3 µM, first compound 0.03 µM) 87.7% | viability, T/C (second compound 3 µM, first compound 0.0949 µM) 78.3% | viability, T/C (second compound 3 µM, first compound 0.3 µM) 61.2%

NC1CCC(NC2CC2c2ccccc2)CC1 (stereo not given) + CCN1C(C(=O)NC23CCC(C(=O)O)(CC2)CC3)C(c2cccc(Cl)c2F)C2(C(=O)Nc3cc(Cl)ccc32)C12CCCCC2
inactive: viability, T/C (second compound 0.03 µM, first compound 0.000316 µM) 105% | viability, T/C (second compound 0.03 µM, first compound 0.001 µM) 103% | viability, T/C [1] 107% | viability, T/C [2] 98.7% | viability, T/C [3] 97.7% | viability, T/C [4] 84.5% | viability, T/C (second compound 0.0949 µM, first compound 0.000316 µM) 113% | viability, T/C (second compound 0.0949 µM, first compound 0.001 µM) 105% | viability, T/C [5] 100% | viability, T/C [6] 93% | viability, T/C [7] 107% | viability, T/C [8] 103% | viability, T/C (second compound 0.3 µM, first compound 0.000316 µM) 108% | viability, T/C (second compound 0.3 µM, first compound 0.001 µM) 100% | viability, T/C [9] 105% | viability, T/C [10] 100% | viability, T/C [11] 97.7% | viability, T/C [12] 96.6% | viability, T/C (second compound 0.949 µM, first compound 0.000316 µM) 107% | viability, T/C (second compound 0.949 µM, first compound 0.001 µM) 92.1% | viability, T/C [13] 82.9% | viability, T/C [14] 106% | viability, T/C [15] 95.2% | viability, T/C [16] 96.5% | viability, T/C (second compound 3 µM, first compound 0.000316 µM) 85.7% | viability, T/C (second compound 3 µM, first compound 0.001 µM) 101% | viability, T/C [17] 89.1% | viability, T/C [18] 85.1% | viability, T/C [19] 92.8% | viability, T/C [20] 92.7%
> 100 nM: IC50 (second compound 0.03 µM) | IC50 (second compound 0.0949 µM) | IC50 (second compound 0.3 µM) | IC50 (second compound 0.949 µM) | IC50 (second compound 3 µM)
